Measurements taken from PubChem BioAssay AID248 (DTP/NCI, 2004).
Several values for one entry are separate records, joined by “and”; a condition that tells them apart may be missing. Equal entries are not always repeated. Toxic doses and inconclusive results are not listed. Rule as the data show it: active = T/C of 150% or more; inactive = T/C below 125%.

Tested on: L1210 leukemia ip in BDF1 mice, survival T/C
Assay: NCI In Vivo Anticancer Drug Screen. Data for tumor model L1210 Leukemia (intraperitoneal) in B6D2F1 (BDF1) mice
Settings: endpoint: mean survival time, higher = longer survival
Summary of the method: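 Tumor was transplanted into mice, which were then dosed with test compound or vehicle alone. Survival was recorded for each group, and the treated figure was expressed relative to the control figure.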

[1] = dose: 100.0 mg/kg/injection, schedule: Q01DX001 (ip), vehicle: saline
[2] = dose: 100.0 mg/kg/injection, schedule: Q04DX003 (ip), vehicle: saline
[3] = dose: 200.0 mg/kg/injection, schedule: Q01DX001 (ip), vehicle: saline
[4] = dose: 200.0 mg/kg/injection, schedule: Q04DX003 (ip), vehicle: saline
[5] = dose: 400.0 mg/kg/injection, schedule: Q01DX001 (ip), vehicle: saline
[6] = dose: 400.0 mg/kg/injection, schedule: Q04DX003 (ip), vehicle: saline
[7] = dose: 50.0 mg/kg/injection, schedule: Q01DX009 (ip), vehicle: saline with Tween-80
[8] = dose: 100.0 mg/kg/injection, schedule: Q01DX009 (ip), vehicle: saline with Tween-80
[9] = dose: 200.0 mg/kg/injection, schedule: Q01DX009 (ip), vehicle: saline with Tween-80
[10] = dose: 100.0 mg/kg/injection, schedule: Q04DX003 (ip), vehicle: Klucel (hydroxypropylcellulose) (HPC)
[11] = dose: 100.0 mg/kg/injection, schedule: Q04DX003 (ip), vehicle: saline with Tween-80
[12] = dose: 200.0 mg/kg/injection, schedule: Q04DX003 (ip), vehicle: Klucel (hydroxypropylcellulose) (HPC)
[13] = dose: 200.0 mg/kg/injection, schedule: Q04DX003 (ip), vehicle: saline with Tween-80
[14] = dose: 400.0 mg/kg/injection, schedule: Q04DX003 (ip), vehicle: Klucel (hydroxypropylcellulose) (HPC)
[15] = dose: 400.0 mg/kg/injection, schedule: Q04DX003 (ip), vehicle: saline with Tween-80

Measured: T/C

COc1ccc(S(=O)O)cc1NC(C)=O
inactive: [1] 105 % of control | dose: 100.0 mg/kg/injection, schedule: Q01DX009 (ip), vehicle: saline 94 % of control | [2] 92 % of control and 100 % of control | [3] 96 % of control | dose: 200.0 mg/kg/injection, schedule: Q01DX009 (ip), vehicle: saline 87 % of control | [4] 93 % of control and 95 % of control | [5] 98 % of control | dose: 400.0 mg/kg/injection, schedule: Q01DX009 (ip), vehicle: saline 86 % of control | [6] 91 % of control and 93 % of control

O=C(Nc1ccccc1)C1=C(Nc2ccccc2)CSC1
inactive: dose: 25.0 mg/kg/injection, schedule: Q01DX009 (ip), vehicle: saline with Tween-80 109 % of control | [7] 100 % of control | [8] 94 % of control | [9] 98 % of control | dose: 400.0 mg/kg/injection, schedule: Q01DX009 (ip), vehicle: saline with Tween-80 89 % of control

O=C(CNCc1ccccc1)NC(Cc1ccccc1)c1ccccc1 (stereo unspecified)
inactive: [10] 96 % of control | [11] 101 % of control | [12] 93 % of control | [13] 94 % of control | [14] 94 % of control | [15] 94 % of control

O=S(=O)(/C=C/c1ccccc1)Oc1ccc(-c2ccccc2)cc1
inactive: dose: 100.0 mg/kg/injection, schedule: Q01DX001 (ip), vehicle: acetone 104 % of control | dose: 100.0 mg/kg/injection, schedule: Q01DX009 (ip), vehicle: acetone 90 % of control | dose: 100.0 mg/kg/injection, schedule: Q04DX003 (ip), vehicle: acetone 97 % of control | dose: 200.0 mg/kg/injection, schedule: Q01DX001 (ip), vehicle: acetone 98 % of control | dose: 200.0 mg/kg/injection, schedule: Q04DX003 (ip), vehicle: acetone 91 % of control | dose: 400.0 mg/kg/injection, schedule: Q01DX001 (ip), vehicle: acetone 98 % of control | dose: 400.0 mg/kg/injection, schedule: Q01DX009 (ip), vehicle: acetone 90 % of control | dose: 400.0 mg/kg/injection, schedule: Q04DX003 (ip), vehicle: acetone 91 % of control

CN1CC(C(=O)NCc2ccccc2)CC2c3cccc4[nH]cc(c34)CC21 (stereo unspecified)
inactive: dose: 25.0 mg/kg/injection, schedule: Q04DX003 (ip), vehicle: Klucel (hydroxypropylcellulose) (HPC) 96 % of control | dose: 50.0 mg/kg/injection, schedule: Q04DX003 (ip), vehicle: Klucel (hydroxypropylcellulose) (HPC) 91 % of control | [10] 96 % of control | [12] 89 % of control | [14] 91 % of control

Oc1ccc(Br)cc1Sc1cc(Br)ccc1O
inactive: dose: 100.0 mg/kg/injection, schedule: Q01DX001 (ip), vehicle: carboxymethylcellulose (CMC) 100 % of control | [1] 97 % of control | dose: 200.0 mg/kg/injection, schedule: Q01DX001 (ip), vehicle: carboxymethylcellulose (CMC) 103 % of control | [3] 95 % of control | dose: 400.0 mg/kg/injection, schedule: Q01DX001 (ip), vehicle: carboxymethylcellulose (CMC) 95 % of control | [5] 95 % of control

C/C=C(\C)C(C#N)CCCC (stereo unspecified)
inactive: dose: 75.0 mg/kg/injection, schedule: Q01DX001 (ip), vehicle: carboxymethylcellulose (CMC) 95 % of control | dose: 150.0 mg/kg/injection, schedule: Q01DX001 (ip), vehicle: carboxymethylcellulose (CMC) 106 % of control | dose: 300.0 mg/kg/injection, schedule: Q01DX001 (ip), vehicle: carboxymethylcellulose (CMC) 95 % of control

CCCCCCCCCCCCC(=O)OC
inactive: [11] 101 % of control | [13] 96 % of control | [15] 98 % of control

O=C1C(N2CC2)=C(N2CC2)C(=O)C(N2CC2)=C1N1CC1
inactive: dose: 0.12 mg/kg/injection, schedule: Q01DX001 (ip), vehicle: saline 112 % of control

CC12CCC(C1)C(C)(C)C2NCCCN1C(=O)c2ccc3c4c(ccc(c24)C1=O)C(=O)N(CCCNC1C2(C)CCC(C2)C1(C)C)C3=O (stereo unspecified)
inactive: dose: 25.0 mg/kg/injection, schedule: Q01DX009 (ip), vehicle: saline 102 % of control | dose: 25.0 mg/kg/injection, schedule: Q04DX003 (ip), vehicle: saline 98 % of control | dose: 50.0 mg/kg/injection, schedule: Q01DX009 (ip), vehicle: saline 117 % of control | dose: 50.0 mg/kg/injection, schedule: Q04DX003 (ip), vehicle: saline 94 % of control | [2] 96 % of control and 90 % of control

O=C(CC1(O)C(=O)Nc2ccccc21)c1ccccc1 (stereo unspecified)
inactive: [10] 101 % of control | [12] 96 % of control | [14] 96 % of control

COc1cc(C(=O)Nc2ccc(NC3=NCCN3)cc2)cc(C(=O)Nc2ccc(NC3=NCCN3)cc2)c1
inactive: dose: 1.9 mg/kg/injection, schedule: Q01DX Z (ip), vehicle: methylcellulose (MC) 104 % of control | dose: 3.8 mg/kg/injection, schedule: Q01DX Z (ip), vehicle: methylcellulose (MC) 99 % of control | dose: 7.5 mg/kg/injection, schedule: Q01DX Z (ip), vehicle: methylcellulose (MC) 113 % of control | dose: 15.0 mg/kg/injection, schedule: Q01DX Z (ip), vehicle: methylcellulose (MC) 118 % of control

N#Cc1ccc(O)c(-c2ccccn2)c1
inactive: [10] 94 % of control | [12] 93 % of control | [14] 94 % of control

CC1(C)C2=CCCC(O)C2(C)CCC1O (stereo unspecified)
inactive: [7] 96 % of control | [8] 96 % of control | [9] 92 % of control

O=C(Nc1cccc2ccccc12)OCCCBr
inactive: [8] 90 % of control | [9] 90 % of control

C1CC2OC2CC1C1CO1 (stereo unspecified)
inactive: [2] 105 % of control | [4] 109 % of control | [6] 102 % of control

COC(=O)c1cn[nH]c1N=Nc1ccc(N(CCCl)CCCl)cc1
inactive: dose: 75.0 mg/kg/injection, schedule: Q01DX001 (ip), vehicle: other 109 % of control | dose: 150.0 mg/kg/injection, schedule: Q01DX001 (ip), vehicle: other 124 % of control | dose: 300.0 mg/kg/injection, schedule: Q01DX001 (ip), vehicle: other 119 % of control

CN(C)OC(=O)Nc1cccc(C(=O)ON(C)C)c1
inactive: dose: 100.0 mg/kg/injection, schedule: Q04DX002 (ip), vehicle: DMSO 99 % of control | dose: 200.0 mg/kg/injection, schedule: Q04DX002 (ip), vehicle: DMSO 101 % of control | dose: 400.0 mg/kg/injection, schedule: Q04DX002 (ip), vehicle: DMSO 101 % of control

Nc1ccc(O)c2c1C(=O)c1ccccc1C2=O
inactive: dose: 100.0 mg/kg/injection, schedule: Q01DX009 (ip), vehicle: Klucel (hydroxypropylcellulose) (HPC) 103 % of control | dose: 100.0 mg/kg/injection, schedule: Q04DX002 (ip), vehicle: Klucel (hydroxypropylcellulose) (HPC) 104 % of control | dose: 200.0 mg/kg/injection, schedule: Q01DX009 (ip), vehicle: Klucel (hydroxypropylcellulose) (HPC) 92 % of control | dose: 200.0 mg/kg/injection, schedule: Q04DX002 (ip), vehicle: Klucel (hydroxypropylcellulose) (HPC) 115 % of control | dose: 400.0 mg/kg/injection, schedule: Q01DX009 (ip), vehicle: Klucel (hydroxypropylcellulose) (HPC) 96 % of control | dose: 400.0 mg/kg/injection, schedule: Q04DX002 (ip), vehicle: Klucel (hydroxypropylcellulose) (HPC) 100 % of control
